Experimental data taken from patent US9606114B2, “Multivalent chelators containing a scaffold structure for modifying and organizing of target molecules” (JOHANN WOLFGANG GOETHE-UNIVERSITAT FRANKFURT AM MAIN, priority 2004, dated 2017).

Key:
ifnar2-H10 [1] = biological target: T1, ifnar2-H10 (Homo sapiens, UniProt P48551); assay: Fluorescence quantum yield of MCH-fluorophore conjugate after Ni(II) loading and protein binding; assay type: physicochemical
T1 construct: the extracellular domain of ifnar2 with a C-terminal deca-histidine-tag (ifnar2-H10)
T1 sequence (P48551 with tags, fused parts or gaps): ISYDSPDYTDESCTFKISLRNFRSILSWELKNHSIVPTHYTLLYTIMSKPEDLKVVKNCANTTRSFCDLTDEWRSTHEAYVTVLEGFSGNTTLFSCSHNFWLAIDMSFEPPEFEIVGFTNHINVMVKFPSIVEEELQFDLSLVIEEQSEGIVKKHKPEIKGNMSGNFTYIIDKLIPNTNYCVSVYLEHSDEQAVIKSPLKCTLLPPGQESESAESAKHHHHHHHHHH
Description: (§1) For a non-covalent fluorescence labeling of histidine-tagged proteins in solution conjugates of tris-NTA with three different fluorophores were synthesized: Oregon Green 488, ATTO 565, FEW-S0387 (FIG. 17).
(§2) After loading with Ni(II)-ions ifnar2-H10 was added to these conjugates and the excess conjugate was separated through gel filtration.
(§3) The different states of the MCH-fluorophore-conjugate could be followed by fluorescence quantum yield. (FIG. 18B). After loading of the chelator-groups with Ni(II)-ions a marked reduction of the fluorescence to about 50% was observed, and after binding to the protein to about 40%.

ifnar2-H10 [2] = assay: as above; assay type: physicochemical; settings: relative to unloaded conjugate
Description: as §1, §2, §3

ifnar2-H10 [3] = biological target: T1, ifnar2-H10; assay: Lateral diffusion of protein anchored via bis-NTA lipid to solid-supported lipid double layer (FRAP); settings: membrane-anchored via bis-NTA lipid in stearoyl-oleoyl-phosphatidylcholine double layer
Source text: For an attachment of proteins to lipid membranes, a lipid-analogue conjugate of bis-NTA was synthesized that is shown in FIG. 15A.
This lipid was incorporated into unilaminar vesicles of stearoyl-oleoyl-phosphatidylcholine that spontaneously form a fluid solid-supported lipid-double layer on glass surfaces (FIG. 15B). ifnar2-H10 could be specifically anchored at these membranes, whereby the binding activity was completely preserved (FIG. 15B). The lateral diffusion of the membrane-anchored ifnar2-H10 was analyzed through fluorescence-bleaching (fluorescence recovery after photobleaching, FRAP) (FIG. 16). Thereby, a diffusion constant of 1 μm^2/s was determined.

ifnar2-H10 [4] = biological target: T1, ifnar2-H10; assay: Immobilization of histidine-tagged protein on chelator-modified surface, detected by RIfS; assay type: binding; settings: immobilized on tris-NTA modified surface
Source text: The interaction of histidine-tagged proteins with the surfaces as produced in example 1 was characterized in detail by means of reflectometric interference spectroscopy (RIfS). Using this method, the binding of proteins to surfaces can be quantified in real time, as described in Piehler and Schreiber 2001 (Piehler J, Schreiber G. 2001. Fast transient cytokine-receptor interactions monitored in real time by reflectometric interference spectroscopy. Anal. Biochem. 289(2):173-186.)
The immobilization of the extracellular domain of ifnar2 with a C-terminal deca-histidine-tag (ifnar2-H10) to a tris-NTA modified surface (FIG. 7A) is shown in FIG. 7B. Whereas no binding was detectable before loading of the chelator coupled to the surface with Ni(II)-ions, thereafter an overall binding of about 1.5 ng/mm^2 protein was observed that also maintained stably immobilized during rinsing. Nevertheless, this protein could be removed quantitatively with 200 mM imidazole as competitor.
The functionality of the immobilized protein was examined through the binding of the ligand interferon α2 (IFNα2) (FIG. 8).

How did the “reduction of fluorescence compared with Oregon Green conjugate” value (ifnar2-H10 [1]; Ni(II) loading and protein binding) turn out when ATTO 565-Tris-NTA was run?
Its value is “even more pronounced”.

What does the source list for OG 488-Tris-NTA [tris-NTA-Oregon Green]?
fluorescence after binding to the protein (ifnar2-H10 [1]; Ni(II)-loaded conjugate bound to ifnar2-H10): about 40%; fluorescence after loading of the chelator-groups with Ni(II)-ions (ifnar2-H10 [2]): about 50%

Which diffusion constant (ifnar2-H10 [3]) does the source give for “ifnar2-H10: extracellular domain of ifnar2 (type I interferon-receptor 2) with a C-terminal deca-histidine-tag” here?
Its diffusion constant is 1 μm^2/s.

What about the “immobilized ifnar2-H10 active (binding of ligand IFNα2)” value (ifnar2-H10 [4]) of the same substance?
The value was “more than 90%”.
